The term IC50 denotes the concentration that inhibits the measured activity by half.

Structures can show the parent of a compound that is named as a salt.

In one experiment the test system is human primary T-cells, IL-2 stimulated proliferation (JAK-1 and JAK-3 dependent; reported as JAK3 activity). Kind of experiment: Human primary T-cell proliferation stimulated by IL-2 (Example 3). Type of experiment: cell-based. The note with it: Homo sapiens, T-cell, tested under conditions described in Example 3 (IL-2 stimulated human primary T-cell proliferation); read-out: ability to inhibit JAK3 activity, IC50 range (Table V). The method in brief:
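Peripheral-blood human T-cells pre-activated via TCR/CD28, IL-2-starved overnight, then cultured 72 h at 37 °C with compound in Yssel's medium containing IL-2 (80 U/mL in cell suspension). Proliferation read as viable-cell ATP by CellTiter-Glo luminescence; reduction versus control taken as JAK pathway inhibition.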
`Cc1cnc(Nc2cccc(C(N)=O)c2)nc1Nc1ccc2oc(=O)[nH]c2c1` [Compound I-2, N4-(benzo[d]oxazol-2(3H)-on-5-yl)-N2-(3-aminocarbonylphenyl)-5-methylpyrimidine-2,4-diamine]: the IC50 was below 500 nM.

Turning to `[2H]C([2H])([2H])Oc1cc(C)cc(Nc2ncc(C)c(Nc3ccc4oc(=O)[nH]c4c3)n2)c1` [Compound I-266, 5-(2-(3-methyl-5-trideuteromethoxyphenylamino)-5-methylpyrimidin-4-ylamino)benzo[d]oxazol-2(3H)-one], the IC50 is below 500 nM.

For the molecule `Cc1cnc(Nc2ccc(N3CCN(C(C)C)[C@H](C)C3)nc2)nc1Nc1ccc2oc(=O)[nH]c2c1` [II-70, (R)-5-(2-(6-(4-isopropyl-3-methylpiperazin-1-yl)pyridin-3-ylamino)-5-methylpyrimidin-4-ylamino)benzo[d]oxazol-2(3H)-one], the 50% inhibitory concentration (IC50) was below 500 nM.

For the molecule `Cc1cnc(Nc2ccc(NC3CC4CCC(C3)N4C)cc2)nc1Nc1ccc2oc(=O)[nH]c2c1` (stereo not shown) [Compound I-121, N4-(benzo[d]oxazol-2(3H)-on-5-yl)-N2-(4-(8-methyl-8-azabicyclo[3.2.1]octan-3-ylamino)phenyl)-5-methylpyrimidine-2,4-diamine], the 50% inhibitory concentration (IC50) fell in the range of 500 to 5000 nM.

For `Cc1cnc(Nc2ccc(N(C)[C@@H]3CCCNC3)nc2)nc1Nc1ccc2oc(=O)[nH]c2c1` [II-108, (R)-5-(5-methyl-2-(6-(methyl(piperidin-3-yl)amino)pyridin-3-ylamino)pyrimidin-4-ylamino)benzo[d]oxazol-2(3H)-one], the IC50 is below 500 nM.

For the molecule `Cc1cnc(Nc2ccc3onc(C)c3c2)nc1Nc1ccc2oc(=O)[nH]c2c1` [IV-9, N4-(benzo[d]oxazol-2(3H)-on-5-yl)-N2-(3-methyl-1,2-benzisoxazol-5-yl)-5-methylpyrimidine-2,4-diamine], the IC50 is below 500 nM.

Turning to `Cc1cnc(Nc2ccc(N3C[C@H]4C[C@@H]3CN4C)nc2)nc1Nc1ccc2oc(=O)[nH]c2c1` [II-2, N4-(benzo[d]oxazol-2(3H)-on-5-yl)-N2-(6-((1R,4R)-5-methyl-2,5-diazabicyclo[2.2.1]heptan-2-yl)-pyridin-3-yl)-5-methylpyrimidine-2,4-diamine], the concentration for half-maximal inhibition (IC50) is below 500 nM.

As for `Cc1ccc(Cl)c(Nc2ncc(C)c(Nc3ccc4oc(=O)[nH]c4c3)n2)c1` [Compound I-521, 5-(2-(2-chloro-5-methylphenylamino)-5-methylpyrimidin-4-ylamino)benzo[d]oxazol-2(3H)-one], the IC50 is below 500 nM.

`CCOc1ccc(Nc2ncc(C)c(Nc3ccc4oc(=O)[nH]c4c3)n2)cc1C(F)(F)F` [Compound I-168, 5-[2-(4-Ethoxy-3-trifluoromethyl-phenylamino)-5-methyl-pyrimidin-4-ylamino]-3H-benzooxazol-2-one]: the IC50 fell in the range of 500 to 5000 nM.

Take `Cc1cnc(Nc2ccc(OCC3CCCCC3)c(C(F)(F)F)c2)nc1Nc1ccc2oc(=O)[nH]c2c1` [Compound I-179, 5-[2-(4-Cyclohexylmethoxy-3-trifluoromethyl-phenylamino)-5-methyl-pyrimidin-4-ylamino]-3H-benzooxazol-2-one]: the IC50 was above 10000 nM.

As for `Cc1cnc(Nc2ccc(N3CCCN(C)CC3)nc2)nc1Nc1ccc2oc(=O)[nH]c2c1` [II-3, N4-(benzo[d]oxazol-2(3H)-on-5-yl)-N2-(6-(4-methyl-1,4-diazepan-1-yl)pyridin-3-yl)-5-methylpyrimidine-2,4-diamine], the concentration for half-maximal inhibition (IC50) was below 500 nM.

As for `Cc1cnc(Nc2ccc3c(c2)C(=O)N(C)CCCC3)nc1Nc1ccc2oc(=O)[nH]c2c1` [IV-14, 2-Methyl-9-[5-methyl-4-(2-oxo-2,3-dihydro-benzooxazol-5-ylamino)-pyrimidin-2-ylamino]-3,4,5,6-tetrahydro-2H-benzo[c]azocin-1-one], the IC50 was below 500 nM.

On to `Cc1cnc(Nc2ccccc2Cl)nc1Nc1ccc2oc(=O)[nH]c2c1` [Compound I-520, 5-(2-(2-chlorophenylamino)-5-methylpyrimidin-4-ylamino)benzo[d]oxazol-2(3H)-one], for which the IC50 was in the range of 500 to 5000 nM.

Turning to `NS(=O)(=O)c1ccc(Nc2ncc(F)c(Nc3ccc4[nH]c(=O)[nH]c4c3)n2)cc1` [Compound I-13, 5-(5-fluoro-2-(4-aminosulfonylphenylamino)pyrimidin-4-ylamino)-1H-benzo[d]imidazol-2(3H)-one], the IC50 was in the range of 500 to 5000 nM.

As to `COC(=O)c1ccc(Nc2ncc(C)c(Nc3ccc4oc(=O)[nH]c4c3)n2)cc1C` [Compound I-159, 2-Methyl-4-[5-methyl-4-(2-oxo-2,3-dihydro-benzooxazol-5-ylamino)-pyrimidin-2-ylamino]-benzoic acid methyl ester], the IC50 is below 500 nM.

With `Cc1cnc(Nc2cnc3c(c2)OCC(=O)N3)nc1Nc1ccc2oc(=O)[nH]c2c1` [IV-46, 5-methyl-N4-(2-oxo-2,3-dihydro-1,3-benzoxazol-5-yl)-N2-(2H-pyrido[3,2-b][1,4]oxazin-3 (4H)-one-7-yl)-2,4-pyrimidinediamine], the IC50 was below 500 nM.

As for `Cc1cnc(Nc2cc(C)c(C)c(C)c2)nc1Nc1cc(F)c2oc(=O)[nH]c2c1` [Compound I-489, 7-fluoro-5-(5-methyl-2-(3,4,5-trimethylphenylamino)pyrimidin-4-ylamino)benzo[d]oxazol-2(3H)-one], the half-inhibitory concentration (IC50) was below 500 nM.

Turning to `COCCOc1ccc(Nc2ncc(C)c(Nc3ccc4oc(=O)[nH]c4c3)n2)cc1C(F)(F)F` [Compound I-165, 5-{2-[4-(2-Methoxy-ethoxy)-3-trifluoromethyl-phenylamino]-5-methyl-pyrimidin-4-ylamino}-3H-benzooxazol-2-one], the half-inhibitory concentration (IC50) was below 500 nM.

Turning to `COc1cc(Nc2ncc(C)c(Nc3ccc4oc(=O)[nH]c4c3)n2)ccc1-c1cccnc1` [Compound I-506, 5-(2-(3-methoxy-4-(pyridin-3-yl)phenylamino)-5-methylpyrimidin-4-ylamino)benzo[d]oxazol-2(3H)-one formate salt], the half-inhibitory concentration (IC50) is below 500 nM.

On to `Cc1cc(CF)cc(Nc2ncc(C)c(Nc3ccc4oc(=O)[nH]c4c3)n2)c1` [Compound I-238, 5-(2-(3-(fluoromethyl)-5-methylphenylamino)-5-methylpyrimidin-4-ylamino)benzo[d]oxazol-2(3H)-one], for which the IC50 was below 500 nM.

Turning to `Cc1cnc(Nc2ccc(C=O)cc2)nc1Nc1ccc2oc(=O)[nH]c2c1` [Compound I-4, N4-(benzo[d]oxazol-2(3H)-on-5-yl)-N2-(4-formylphenyl)-5-methylpyrimidine-2,4-diamine], the IC50 was below 500 nM.

On to `Cc1cnc(Nc2ccc(N(C)[C@H]3CCCN(Cc4ccccc4)C3)nc2)nc1Nc1ccc2oc(=O)[nH]c2c1` [II-95, (S)-5-(2-(6-((1-benzylpiperidin-3-yl)(methyl)amino)pyridin-3-ylamino)-5-methylpyrimidin-4-ylamino)benzo[d]oxazol-2(3H)-one], for which the IC50 is below 500 nM.

As to `COc1ccc(Nc2ncc(C)c(Nc3ccc4oc(=O)[nH]c4c3)n2)cc1OC(F)F` [Compound I-116, N2-(3-(difluoromethoxy)-4-methoxyphenyl)-N4-(benzo[d]oxazol-2(3H)-on-5-yl)-5-methylpyrimidine-2,4-diamine], the half-maximal inhibitory concentration (IC50) is below 500 nM.

Staying with this experiment, now noted: tested under conditions described in Example 3 (IL-2 stimulated human primary T-cell proliferation); read-out: ability to inhibit JAK3 activity, IC50 range (Table V).
Consider `Cc1cnc(Nc2ccc(NS(C)(=O)=O)cc2)nc1Nc1ccc2oc(=O)n(C)c2c1` [Compound I-72, N2-((4-methylsulfonylamino)phenyl)-N4-(3-methyl-2-oxo-2,3-dihydrobenzo[d]oxazol-5-yl)-5-methylpyrimidine-2,4-diamine], for which the half-maximal inhibitory concentration (IC50) was below 500 nM.

Consider `CNC(=O)COc1cccc(Nc2ncc(C)c(Nc3ccc4oc(=O)[nH]c4c3)n2)c1C` [Compound I-325, 5-methyl-N2-(2-methyl-3-methylaminocarbonylmethoxy)phenyl-N4-(2-oxo-2,3-dihydro-1,3-benzoxazol-5-yl)-2,4-pyrimidinediamine], for which the half-inhibitory concentration (IC50) is 500 to 5000 nM.

With `Cc1cnc(Nc2cccc(C(=O)N3CCN(C)CC3)c2)nc1Nc1ccc2oc(=O)[nH]c2c1` [Compound I-321, 5-methyl-N2-[3-(4-methylpiperazin-1-yl)carbonyl]phenyl-N4-(2-oxo-2,3-dihydro-1,3-benzoxazol-5-yl)-2,4-pyrimidinediamine], the half-inhibitory concentration (IC50) was below 500 nM.

In the case of `Cc1cnc(Nc2cnc(N3CCN4CCC[C@H]4C3)c(C(F)(F)F)c2)nc1Nc1ccc2oc(=O)[nH]c2c1` [II-124, N2-[2-(S-1,4-diazabicylco[4.3.0]nonan-4-yl)-3-trifluoromethylpyridin-5-yl]-5-methyl-N4-(2-oxo-2,3-dihydro-1,3-benzoxazol-5-yl)-2,4-pyrimidinediamine], the half-maximal inhibitory concentration (IC50) was below 500 nM.

Turning to `Cc1cnc(Nc2cccc(OCC(=O)NC3CC3)c2)nc1Nc1ccc2oc(=O)[nH]c2c1` [Compound I-315, N2-[3-(cyclopropylaminocarbonylmethoxy)]phenyl-5-methyl-N4-(2-oxo-2,3-dihydro-1,3-benzoxazol-5-yl)-2,4-pyrimidinediamine], the half-maximal inhibitory concentration (IC50) was below 500 nM.

Turning to `CCCn1c(=O)oc2ccc(Nc3nc(Nc4cccc(S(C)(=O)=O)c4)ncc3C)cc21` [Compound I-7, N4-(3-n-propylbenzo[d]oxazol-2(3H)-on-5-yl)-N2-((3-methylsulfonyl)phenyl)-5-methylpyrimidine-2,4-diamine], the IC50 was below 500 nM.

In the case of `Cc1cc(C)cc(Nc2ncc(C)c(Nc3ccc4oc(=O)[nH]c4c3)n2)c1` [Compound I-302, N2-(3,5-dimethyl)phenyl-5-methyl-N4-(2-oxo-2,3-dihydro-1,3-benzoxazol-5-yl)-2,4-pyrimidinediamine], the IC50 was below 500 nM.

As to `Cc1cnc(Nc2cc(C)c(OC(F)F)c(C)c2)nc1Nc1ccc2oc(=O)[nH]c2c1` [Compound I-385, N2-(4-difluoromethoxy-3,5-dimethyl)phenyl-5-methyl-N4-(2-oxo-2,3-dihydro-1,3-benzoxazol-5-yl)-2,4-pyrimidinediamine], the half-maximal inhibitory concentration (IC50) is below 500 nM.
